Measurements published in US20030187058A1, “Combination of lipoic acids and conjugated acids for treating diabetic disorders” (priority 2000, published 2003).

Key:
[1] = system: epitrochlearis muscle; assay: 2-Deoxyglucose uptake (glucose transport activity) in epitrochlearis muscle removed from treated obese Zucker rats, incubated in vitro; format: in vivo, obese Zucker rat (fa/fa); conditions: obese Zucker rats treated 18-20 days; for 2-Deoxyglucose level, Increase: insulin-stimulated minus basal; for 2-Deoxyglucose level, + Insulin [5 mU/ml] / 2-Deoxyglucose level, Basal: R-LA 10 mg/kg ip, CLA 0.3 mg/kg (table) by gavage; for 2-Deoxyglucose level, + Insulin [5 mU/ml]: insulin 5 mU/ml in vitro; for 2-Deoxyglucose level, Basal: no insulin
Text: (§1) The obese Zucker rat (fa/fa) is an animal model of insulin resistance, glucose intolerance, hyperinsulinaemia and dyslipidaemia. This model was used to determine the effect of four different forms of diet (control, R-lipoic acid (R—LA), conjugated linoleic acid (CLA) and a combination of conjugated linoleic acid and R-lipoic acid) on insulin-induced skeletal muscle glucose transport activity and on glucose tolerance.
(§2) The test animals were maintained on regular chow and water ad libitum. […] R-lipoic acid was administered by intraperitoneal injection; conjugated linoleic acid by gavage. The treatment period lasted for 18-20 days.
(§3) 24 hours after the final treatment and having been restricted to 4 g chow during the previous 13 hours, animals were deeply anaesthetised with pentobarbital sodium (50 mg/kg ip). Right soleus muscles and both right and left epitrochlearis muscles were surgically removed and prepared for incubation in vitro. Muscles were prepared as described by Peth J A et al. (Am J Physiol Regulatory Integrative Comp Physiol 2000; 278: R453-R459). Glucose transport activity was then determined as described by Hendriksen and Halseth (J Appl Physiol 1994; 76: 1862-1867).

[2] = system: skeletal muscle; assay: Insulin-induced skeletal muscle glucose transport activity in treated obese Zucker rats (summary statement); format: in vivo, obese Zucker rat (fa/fa); conditions: each substance alone
Text: as §1
The test animals were maintained on regular chow and water ad libitum. At the age of 9-10 weeks, the animals were assigned to either a vehicle-treated control group or to intervention groups receiving either R-lipoic acid (10 mg/kg bodyweight), conjugated linoleic acid (c9,t11:t10,c12; 50:50; 0.3 g/kg bodyweight) or both. R-lipoic acid was administered by intraperitoneal injection; conjugated linoleic acid by gavage. The treatment period lasted for 18-20 days.
as §3, with “Muscles were prepared as described by Peth J A et al. (Am J Physiol Regulatory Integrative Comp Physiol 2000; 278: R453-R459).” left out

[3] = system: soleus muscle; assay: 2-Deoxyglucose uptake (glucose transport activity) in soleus muscle removed from treated obese Zucker rats, incubated in vitro; format: in vivo, obese Zucker rat (fa/fa); conditions: obese Zucker rats treated 18-20 days; for 2-Deoxyglucose level, Increase: insulin-stimulated minus basal; for 2-Deoxyglucose level, + Insulin [5 mU/ml] / 2-Deoxyglucose level, Basal: R-LA 10 mg/kg ip, CLA 0.3 mg/kg (table) by gavage; for 2-Deoxyglucose level, + Insulin [5 mU/ml]: insulin 5 mU/ml in vitro; for 2-Deoxyglucose level, Basal: no insulin
Text: as §1, §2, §3

[4] = system: NIDDM patients; conditions: 800 mg each day for 4 months; cited from earlier work
[5] = system: patients with type II diabetes; conditions: single parenteral dose of 1,000 mg; cited from earlier work
[6] = system: diabetic neuropathy; conditions: intravenous 600 mg a day for 3 weeks; cited from earlier work
[7] = system: diabetic polyneuropathy; conditions: 3-week intravenous and subsequent 6-months oral treatment, cited from earlier work

Compound | 2-Deoxyglucose level, Increase [1] | 2-Deoxyglucose level, + Insulin [5 mU/ml] [1] | 2-Deoxyglucose level, Basal [1] | skeletal muscle glucose transport activity following stimulation by insulin, beyond the increase in the vehicle-treated control group [2] | 2-Deoxyglucose level, Increase [3] | 2-Deoxyglucose level, + Insulin [5 mU/ml] [3] | 2-Deoxyglucose level, Basal [3] | cardiovascular autonomic symptoms [4] | glucose utilization [5] | symptomatic complaints [6] | neuropathic deficits [7] | neuropathic symptoms ([7]; versus placebo)
conjugated linoleic acid [CLA] | 123 +/− 13 pmol/mg muscle | 248 +/− 14 pmol/mg muscle | 126 +/− 4 pmol/mg muscle | Neither R-lipoic acid nor conjugated linoleic acid alone increased | 261 +/− 13 pmol/mg muscle | 492 +/− 9 pmol/mg muscle | 231 +/− 6 pmol/mg muscle | – | – | – | – | –
O=C(O)CCCCC1CCSS1 (stereo not shown) [lipoic acid, 5-(1,2-dithiolan-3-yl)valeric acid] | – | – | – | – | – | – | – | no significant change | distinct improvement | decreased | appeared to have a beneficial effect | no effect on neuropathic symptoms distinguishable from placebo
O=C(O)CCCC[C@@H]1CCSS1 [R-LA, (R)-5-(1,2-dithiolan-3-yl)-valeric acid] | 102 +/− 11 pmol/mg muscle | 225 +/− 8 pmol/mg muscle | 123 +/− 3 pmol/mg muscle | Neither R-lipoic acid nor conjugated linoleic acid alone increased | 258 +/− 16 pmol/mg muscle | 481 +/− 19 pmol/mg muscle | 224 +/− 7 pmol/mg muscle | – | – | – | – | –
